Data taken from US20260345619A1 (Principia Biopharma Inc., priority 2023, published 2026).

Experiment: Pre-bronchodilator FEV1 and percent predicted FEV1 by spirometry, change from baseline
Type: in vivo, human
Procedure: Spirometry is a standard test to measure patients' lung function.
The primary endpoint was the proportion of patients with LOAC. The key secondary endpoint for the study was change in pre-bronchodilator FEV1 from baseline at EOT.
Reversibility is defined as an increase of the absolute FEV1 after administration of bronchodilator and is measured by spirometry as postbronchodilator increase in FEV1 in percent of the prebronchodilator FEV1. After spirometry for measuring prebronchodilator FEV1, participants were to receive 2-4 puffs of albuterol/salbutamol or levalbuterol/levosalbutamol from a primed MDI. The postbronchodilator spirometry may have been repeated several times within 30 minutes after administration of bronchodilator. Alternatively, and only if it was consistent with usual office practice (to be documented), reversibility may have been performed using inhalation of nebulized albuterol/salbutamol or levalbuterol/levosalbutamol.
Secondary endpoints included pre-bronchodilator FEV1 change from baseline at EOT, ACQ-5 score change from baseline, and AQLQ score change from baseline. Other secondary and exploratory endpoints are described in Table 2.

[1] = 400 mg BID, Week 12, before LOAC and OCS use, as observed, mITT
[2] = 400 mg BID, Week 12, observed/LOCF imputed, mITT
[3] = 400 mg BID, Week 12, on-site conventional spirometry as observed, mITT
[4] = 400 mg BID, Week 12, reduced model, mITT
[5] = 400 mg BID, Week 16, before LOAC and OCS use, as observed, mITT
[6] = 400 mg BID, Week 16, on-site conventional spirometry as observed, mITT
[7] = 400 mg TID, Week 12, 1 exacerbation within 2 years
[8] = 400 mg TID, Week 12, 2 exacerbations within 2 years
[9] = 400 mg TID, Week 12, Eastern Europe
[10] = 400 mg TID, Week 12, Latin America
[11] = 400 mg TID, Week 12, age <45 years
[12] = 400 mg TID, Week 12, age ≥45 years
[13] = 400 mg TID, Week 12, asthma onset age <12 years
[14] = 400 mg TID, Week 12, asthma onset age <18 years
[15] = 400 mg TID, Week 12, asthma onset age ≥12-<18 years
[16] = 400 mg TID, Week 12, asthma onset age ≥18-<40 years
[17] = 400 mg TID, Week 12, asthma onset age ≥18 years
[18] = 400 mg TID, Week 12, asthma onset age ≥40 years
[19] = 400 mg TID, Week 12, atopic medical conditions: No
[20] = 400 mg TID, Week 12, atopic medical conditions: Yes
[21] = 400 mg TID, Week 12, background ICS dose High
[22] = 400 mg TID, Week 12, background ICS dose Medium
[23] = 400 mg TID, Week 12, baseline ACQ-5 >2
[24] = 400 mg TID, Week 12, baseline ACQ-5 ≤2
[25] = 400 mg TID, Week 12, baseline BMI <25 kg/m^2
[26] = 400 mg TID, Week 12, baseline BMI ≥25-<30 kg/m^2
[27] = 400 mg TID, Week 12, baseline BMI ≥30 kg/m^2
[28] = 400 mg TID, Week 12, baseline FEV1 <2.1955 L (median)
[29] = 400 mg TID, Week 12, baseline FEV1 reversibility <12%
[30] = 400 mg TID, Week 12, baseline FEV1 reversibility ≥12%
[31] = 400 mg TID, Week 12, baseline FEV1 ≥2.1955 L (median)
[32] = 400 mg TID, Week 12, baseline FeNO <25 ppb
[33] = 400 mg TID, Week 12, baseline FeNO <35 ppb
[34] = 400 mg TID, Week 12, baseline FeNO ≥25 ppb

SMILES: CC(C)(C=C(C#N)C(=O)N1CCC[C@@H](n2nc(-c3ccc(Oc4ccccc4)cc3F)c3c(N)ncnc32)C1)N1CCN(C2COC2)CC1 (mixture of isomers) [rilzabrutinib, (R)-2-[3-[4-amino-3-(2-fluoro-4-phenoxy-phenyl)pyrazolo[3,4-d]pyrimidin-1-yl]piperidine-1-carbonyl]-4-methyl-4-[4-(oxetan-3-yl)piperazin-1-yl]pent-2-enenitrile]
- Pre-bronchodilator FEV1 change from baseline, median [1]: -0.04 L
- Pre-bronchodilator FEV1 percent change from baseline, mean [1]: −2.63%
- Pre-bronchodilator FEV1 percent change from baseline, median [1]: −2.04%
- Change from baseline in pre-bronchodilator FEV1, Mean [2]: -0.04 L
- Change from baseline in pre-bronchodilator FEV1, Median [2]: -0.02 L
- Pre-bronchodilator FEV1, Mean [2]: 2.02 L
- Pre-bronchodilator FEV1, Median [2]: 1.88 L
- Pre-bronchodilator FEV1, mean [2]: 2.02 L
- Pre-bronchodilator FEV1, median [2]: 1.88 L
- Pre-bronchodilator FEV1 change from baseline, LS Mean [2]: -0.07 L
- Pre-bronchodilator FEV1 change from baseline, LS Mean Diff vs. placebo [2]: 0.01 L
- Pre-bronchodilator FEV1 change from baseline, Mean [2]: -0.04 L
- Pre-bronchodilator FEV1 change from baseline, median [2]: -0.02 L
- Pre-bronchodilator FEV1, mean [3]: 1.97 L
- Pre-bronchodilator FEV1, median [3]: 1.82 L
- Pre-bronchodilator FEV1 change from baseline, Mean [3]: -0.03 L
- Pre-bronchodilator FEV1 change from baseline, median [3]: -0.05 L
- Pre-bronchodilator FEV1 percent change from baseline, mean [3]: −3.27%
- Pre-bronchodilator FEV1 percent change from baseline, median [3]: −2.70%
- Change from baseline in pre-bronchodilator FEV1, LS Mean [4]: -0.07 L
- Change from baseline in pre-bronchodilator FEV1, LS Mean diff vs. placebo [4]: 0.01 L
- Pre-bronchodilator FEV1, mean [5]: 2.30 L
- Pre-bronchodilator FEV1, median [5]: 2.01 L
- Pre-bronchodilator FEV1 change from baseline, Mean [5]: 0.29 L
- Pre-bronchodilator FEV1 change from baseline, median [5]: 0.28 L
- Pre-bronchodilator FEV1 percent change from baseline, mean [5]: 13.96%
- Pre-bronchodilator FEV1 percent change from baseline, median [5]: 15.23%
- Pre-bronchodilator FEV1, mean [6]: 2.30 L
- Pre-bronchodilator FEV1, median [6]: 2.01 L
- Pre-bronchodilator FEV1 change from baseline, Mean [6]: 0.29 L
- Pre-bronchodilator FEV1 change from baseline, median [6]: 0.28 L
- Pre-bronchodilator FEV1 percent change from baseline, mean [6]: 13.96%
- Pre-bronchodilator FEV1 percent change from baseline, median [6]: 15.23%
- Pre-bronchodilator FEV1 change from baseline, LS Mean [7]: -0.14 L
- Pre-bronchodilator FEV1 change from baseline, LS Mean Diff vs. placebo [7]: -0.13 L
- Pre-bronchodilator FEV1 change from baseline, Mean [7]: -0.16 L
- Pre-bronchodilator FEV1 change from baseline, LS Mean [8]: -0.08 L
- Pre-bronchodilator FEV1 change from baseline, LS Mean Diff vs. placebo [8]: 0.06 L
- Pre-bronchodilator FEV1 change from baseline, Mean [8]: -0.16 L
- Pre-bronchodilator FEV1 change from baseline, Mean (400 mg TID, Week 12, >2 exacerbations within 2 years): 0.01 L
- Pre-bronchodilator FEV1 change from baseline, LS Mean [9]: -0.18 L
- Pre-bronchodilator FEV1 change from baseline, LS Mean Diff vs. placebo [9]: -0.08 L
- Pre-bronchodilator FEV1 change from baseline, Mean [9]: -0.18 L
- Pre-bronchodilator FEV1 change from baseline, LS Mean [10]: -0.08 L
- Pre-bronchodilator FEV1 change from baseline, LS Mean Diff vs. placebo [10]: -0.12 L
- Pre-bronchodilator FEV1 change from baseline, Mean [10]: -0.08 L
- Pre-bronchodilator FEV1 change from baseline, Mean (400 mg TID, Week 12, Western Countries): -0.18 L
- Pre-bronchodilator FEV1 change from baseline, LS Mean [11]: -0.24 L
- Pre-bronchodilator FEV1 change from baseline, LS Mean Diff vs. placebo [11]: -0.18 L
- Pre-bronchodilator FEV1 change from baseline, Mean [11]: -0.24 L
- Pre-bronchodilator FEV1 change from baseline, LS Mean [12]: -0.04 L
- Pre-bronchodilator FEV1 change from baseline, LS Mean Diff vs. placebo [12]: -0.01 L
- Pre-bronchodilator FEV1 change from baseline, Mean [12]: -0.08 L
- Pre-bronchodilator FEV1 change from baseline, LS Mean [13]: -0.34 L
- Pre-bronchodilator FEV1 change from baseline, LS Mean Diff vs. placebo [13]: -0.28 L
- Pre-bronchodilator FEV1 change from baseline, Mean [13]: -0.25 L
- Pre-bronchodilator FEV1 change from baseline, LS Mean [14]: -0.25 L
- Pre-bronchodilator FEV1 change from baseline, LS Mean Diff vs. placebo [14]: -0.27 L
- Pre-bronchodilator FEV1 change from baseline, Mean [14]: -0.18 L
- Pre-bronchodilator FEV1 change from baseline, LS Mean [15]: 0.05 L
- Pre-bronchodilator FEV1 change from baseline, LS Mean Diff vs. placebo [15]: -0.40 L
- Pre-bronchodilator FEV1 change from baseline, Mean [15]: -0.01 L
- Pre-bronchodilator FEV1 change from baseline, LS Mean [16]: -0.18 L
- Pre-bronchodilator FEV1 change from baseline, LS Mean Diff vs. placebo [16]: -0.08 L
- Pre-bronchodilator FEV1 change from baseline, Mean [16]: -0.17 L
- Pre-bronchodilator FEV1 change from baseline, LS Mean [17]: -0.10 L
- Pre-bronchodilator FEV1 change from baseline, LS Mean Diff vs. placebo [17]: -0.02 L
- Pre-bronchodilator FEV1 change from baseline, Mean [17]: -0.14 L
- Pre-bronchodilator FEV1 change from baseline, LS Mean [18]: 0.01 L
- Pre-bronchodilator FEV1 change from baseline, LS Mean Diff vs. placebo [18]: 0.06 L
- Pre-bronchodilator FEV1 change from baseline, Mean [18]: -0.07 L
- Pre-bronchodilator FEV1 change from baseline, LS Mean [19]: -0.15 L
- Pre-bronchodilator FEV1 change from baseline, LS Mean Diff vs. placebo [19]: -0.11 L
- Pre-bronchodilator FEV1 change from baseline, Mean [19]: -0.18 L
- Pre-bronchodilator FEV1 change from baseline, LS Mean [20]: -0.12 L
- Pre-bronchodilator FEV1 change from baseline, LS Mean Diff vs. placebo [20]: -0.04 L
- Pre-bronchodilator FEV1 change from baseline, Mean [20]: -0.09 L
- Pre-bronchodilator FEV1 change from baseline, LS Mean [21]: -0.13 L
- Pre-bronchodilator FEV1 change from baseline, LS Mean Diff vs. placebo [21]: -0.07 L
- Pre-bronchodilator FEV1 change from baseline, Mean [21]: -0.13 L
- Pre-bronchodilator FEV1 change from baseline, LS Mean [22]: -0.15 L
- Pre-bronchodilator FEV1 change from baseline, LS Mean Diff vs. placebo [22]: -0.10 L
- Pre-bronchodilator FEV1 change from baseline, Mean [22]: -0.18 L
- Pre-bronchodilator FEV1 change from baseline, LS Mean [23]: -0.15 L
- Pre-bronchodilator FEV1 change from baseline, LS Mean Diff vs. placebo [23]: -0.16 L
- Pre-bronchodilator FEV1 change from baseline, Mean [23]: -0.17 L
- Pre-bronchodilator FEV1 change from baseline, LS Mean [24]: -0.12 L
- Pre-bronchodilator FEV1 change from baseline, LS Mean Diff vs. placebo [24]: -0.01 L
- Pre-bronchodilator FEV1 change from baseline, Mean [24]: -0.10 L
- Pre-bronchodilator FEV1 change from baseline, LS Mean [25]: -0.19 L
- Pre-bronchodilator FEV1 change from baseline, LS Mean Diff vs. placebo [25]: -0.16 L
- Pre-bronchodilator FEV1 change from baseline, Mean [25]: -0.21 L
- Pre-bronchodilator FEV1 change from baseline, LS Mean [26]: -0.11 L
- Pre-bronchodilator FEV1 change from baseline, LS Mean Diff vs. placebo [26]: -0.05 L
- Pre-bronchodilator FEV1 change from baseline, Mean [26]: -0.14 L
- Pre-bronchodilator FEV1 change from baseline, LS Mean [27]: -0.11 L
- Pre-bronchodilator FEV1 change from baseline, LS Mean Diff vs. placebo [27]: -0.07 L
- Pre-bronchodilator FEV1 change from baseline, Mean [27]: -0.14 L
- Pre-bronchodilator FEV1 change from baseline, LS Mean [28]: -0.03 L
- Pre-bronchodilator FEV1 change from baseline, LS Mean Diff vs. placebo [28]: -0.09 L
- Pre-bronchodilator FEV1 change from baseline, Mean [28]: -0.05 L
- Pre-bronchodilator FEV1 change from baseline, LS Mean [29]: -0.16 L
- Pre-bronchodilator FEV1 change from baseline, LS Mean Diff vs. placebo [29]: -0.12 L
- Pre-bronchodilator FEV1 change from baseline, Mean [29]: -0.18 L
- Pre-bronchodilator FEV1 change from baseline, LS Mean [30]: -0.01 L
- Pre-bronchodilator FEV1 change from baseline, LS Mean Diff vs. placebo [30]: -0.02 L
- Pre-bronchodilator FEV1 change from baseline, Mean [30]: 0.00 L
- Pre-bronchodilator FEV1 change from baseline, LS Mean [31]: -0.22 L
- Pre-bronchodilator FEV1 change from baseline, LS Mean Diff vs. placebo [31]: -0.09 L
- Pre-bronchodilator FEV1 change from baseline, Mean [31]: -0.21 L
- Pre-bronchodilator FEV1 change from baseline, LS Mean [32]: -0.16 L
- Pre-bronchodilator FEV1 change from baseline, LS Mean Diff vs. placebo [32]: -0.12 L
- Pre-bronchodilator FEV1 change from baseline, Mean [32]: -0.19 L
- Pre-bronchodilator FEV1 change from baseline, LS Mean [33]: -0.14 L
- Pre-bronchodilator FEV1 change from baseline, LS Mean Diff vs. placebo [33]: -0.09 L
- Pre-bronchodilator FEV1 change from baseline, Mean [33]: -0.18 L
- Pre-bronchodilator FEV1 change from baseline, LS Mean [34]: -0.09 L
- Pre-bronchodilator FEV1 change from baseline, LS Mean Diff vs. placebo [34]: -0.04 L
- Pre-bronchodilator FEV1 change from baseline, Mean [34]: -0.09 L
- Pre-bronchodilator FEV1 change from baseline, LS Mean (400 mg TID, Week 12, baseline FeNO ≥35 ppb): -0.07 L
